According to patent US20250002991A1, “METHODS AND COMPOSITIONS FOR GENOME EDITING” (THE JOHNS HOPKINS UNIVERSITY, priority 2021, published 2025):

Experiments:
[1] = system: MRE11 recruitment at the Cas9 target site (VEGFA site 3 on-target site; HEK293T, K562); assay: MRE11 ChIP-qPCR at Cas9 target sites after exposure to DNA repair inhibitors; format: cell-based, human; settings: for MRE11 recruitment at the target site (ChIP-qPCR): Cas9 with gRNA targeting VEGFA site 3, HEK293T, 12 hours, 1 μM KU-60648, 20 µM Nu7026, 10 μM Ku-55933, 1 μM Scr7, 10 μM Olaparib
Source text: (§1) The supernatant was decanted.

[2] = system: 53BP1 and BRCA1 foci in U2OS cells stably expressing Cas9-EGFP; assay: Super-resolution STED microscopy of 53BP1 and BRCA1 repair foci after Cas9-induced DNA breaks; format: cell-based
Method: U2OS cells stably expressing Cas9-EGFP cells were seeded onto 35-mm, glass bottom dishes and transfected with mtgRNAs for 12-24 hrs. Cleavage was activated by UV light for 1 minute. To fix cells, 4% of pre-warmed paraformaldehyde in 1×PBS was used for 10 min. After rinsing 3 times with 1×PBS, cell membrane permeabilization was done with Triton-X used for 10 min. Then, cells 2% w/v BSA in 1×PBS was used for blocking for 1 hr and at room temperature. The primary antibodies, mouse anti-BRCA1 (D-9 sc-6954 Santa Cruz) and anti-53bpl (Abcam, ab172580), were diluted (1:500) in 1×PBS and directly added into the imaging dish. After 1 hr incubation, the primary antibody was removed, and the sample was washed with 1×PBS three times. The samples were then incubated for 30 minutes with the secondary antibodies Alexa-594 and Atto-647N diluted (1:1000) in 1×PBS. Finally, the sample was rinsed three times and mounted with Prolong Diamond mounting media (Thermo Fisher Scientific) overnight.
All STED images were obtained using a home-built two-color STED microscope (Han and Ha, 2015: Ma and Ha, 2019). In short, a femtosecond laser beam with a repetition rate of 80 MHz from a Ti: Sapphire laser head (Mai Tai HP, Spectra-Physics) is split into two parts: one part produces an excitation beam coupled into a photonic crystal fiber (Newport) for wide-spectrum light generation. […]

Cas9 editing of ACTB = assay: Sequencing of insertion-deletion mutations (indels) after Cas9 targeting ACTB; format: cell-based; settings: 48 hours after Cas9 editing; especially +1 insertions reduced in favor of larger -3 deletions
Method: Genomic DNA was extracted using the DNeasy Blood & Tissue Kit (Qiagen 69504) following manufacturer instructions. Approximately 1 million cells were used from cell lines and iPSCs. Approximately 10-20 μL of mouse liver cell suspension was used out of 1.5 mL total, and the genome extraction protocol included the Buffer ATL step since this sample is tissue.
Genomic DNA samples were amplified with PCR using Q5 Hot Start High-Fidelity 2X Master Mix (New England BioLabs M0494). For example, the primer set for amplifying around the FANCF site 2 on-target site is NGS_FANCFs2_ON_F and NGS_FANCFs2_ON_R. After amplicon PCR, cleanup was performed using 1.4×AMPure XP (Beckman Coulter A63881) following the manufacturer's instructions. Dual-indexing PCR was performed using KAPA HiFi HotStart ReadyMix (Roche 07958935001) and PCR cleanup was performed using 1×AMPure XP. Samples were quantified using QuBit (Thermo Fisher Scientific), pooled, diluted, and loaded onto a MiSeq (Illumina). […]
Sequencing reads were either demultiplexed automatically using MiSeq Reporter (Illumina) or with a custom Python script to individual FASTQ files. For indel calling, sequencing reads were scanned for exact matches to two 20-bp sequences that flank +/−20 bp from the ends of the target sequence. If no exact matches were found, the read was excluded from analysis. […]

[3] = system: MRE11 at Cas9 on- and off-target sites in K562 cells; assay: MRE11 ChIP-seq with BLENDER off-target detection (DISCOVER-Seq+) in K562 cells; format: cell-based, human
Source text: as §1

[4] = system: MRE11 at Cas9 TRA target sites in primary human T-cells; assay: DISCOVER-Seq+ in primary human T-cells with Cas9 targeting TRA (CAR knock-in); format: cell-based
Source text: as §1

[5] = system: MRE11 at Cas9 PCSK9 target sites in mouse liver; assay: DISCOVER-Seq+ in liver of mice given adenovirus Cas9/gRNA targeting PCSK9; format: in vivo, mouse (C57BL/6J)
Method: For in vivo gene delivery, 8-10 week old mice were anesthetized with 2.5% isofluorane/oxygen mixture. Mice received a single retro-orbital injection of 1×10^9 infectious adenoviral particles (Ad-Cas9-U6-mPCSK9-sgRNA) in 100 μL sterile saline. Immediately following, mice received intraperitoneal delivery of KU-60648 dosed at 25 mg/kg (or vehicle only) in 100 μL of citrate buffer, or 100 μL of citrate buffer vehicle. Mice received a dose of KU-60648 or vehicle every 12 hrs via intraperitoneal injection.
At the experimental endpoint of 12 h, mice were anesthetized with isofluorane and euthanized via cervical dislocation. Liver tissue was harvested, washed 3× in 2 mL PBS with 1× protease inhibitor (Halt™ Protease Inhibitor Cocktail, Thermo), then disrupted the tissue in 1 mL PBS with 1× protease inhibitor using a loose-fitting Dounce homogenizer. For MRE11 ChIP-seq, homogenized tissue was placed on ice and used immediately.
as §1

[6] = previous evaluation, ref [21]; cited from earlier work

O=C(c1cc(Cc2n[nH]c(=O)c3ccccc23)ccc1F)N1CCN(C(=O)C2CC2)CC1 [Olaparib]
MRE11 recruitment at the target site (ChIP-qPCR) [1]: did not exhibit a clear effect

CCN1CCN(CC(=O)Nc2ccc(-c3cccc4c(=O)cc(N5CCOCC5)oc34)c3sc4ccccc4c23)CC1 [Ku-60648, 2-(4-ethylpiperazin-1-yl)-N-[4-(2-morpholin-4-yl-4-oxochromen-8-yl)dibenzothiophen-1-yl]acetamide]
MRE11 recruitment at the target site (ChIP-qPCR) [1]: significantly increased MRE11 recruitment | estimated RPM enrichment normalized to the no drug sample (MRE11 ChIP-qPCR) ([1]; VEGFA site 2 (4 h, 12 h, 24 h) and HEK site 4 in HEK293T, FANCF site 2 in K562, versus without inhibitor, p=0.0001, n=14): significantly higher | 53BP1 foci relative to BRCA1 ([2]; Cas9 with multi-target gRNA targeting over 100 locations): reduction in 53BP1 foci relative to BRCA1 | number of 53BP1 and BRCA1 foci in the absence of Cas9 (DNA damage by inhibitor alone) ([2]; without Cas9): did not change the number of 53BP1 and BRCA1 foci | indel editing after Cas9 targeting ACTB (Cas9 editing of ACTB): reduction in editing | MRE11 ChIP-seq enrichment at all discovered on- and off-target sites ([3]; K562, 12 hours after Cas9 delivery, FANCF site 2 or VEGFA site 2 gRNA, p<1E-3): significantly increased MRE11 ChIP-seq enrichment | fold increase in discovered Cas9 target sites versus without DNA-PKcs inhibition ([3]; VEGFA site 2 gRNA, K562): over 5 fold | total Cas9 target sites discovered ([3]; VEGFA site 2 gRNA, K562, with DNA-PKcs inhibition (36 sites without)): 181 | off-target sites identified genome-wide ([4]; Cas9 targeting TRA, 12 hours (4 with DISCOVER-Seq)): 20 | MRE11 enrichment at all discovered sites ([4]; Cas9 targeting TRA, versus DISCOVER-Seq without drug): significantly greater MRE11 enrichment | MRE11 enrichment in samples without Cas9 (negative control) ([4]; samples without Cas9): did not exhibit any change in enrichment | average number of target sites identified across 5 biological replicates ([5]; 25 mg/kg b.i.d., mouse liver (18 sites with vehicle), p<0.05): 27 | target sites identified, sequencing reads pooled across all 5 replicates ([5]; 25 mg/kg b.i.d., mouse liver (51 with vehicle)): 101 | MRE11 ChIP-seq signal in liver ([5]; 25 mg/kg peritoneal b.i.d., versus without DNA-PKcs inhibition, p<1E-4): significantly increased MRE11 ChIP-seq signal | penetration into tissue [6]: strongly penetrations into tissue including tumors | pharmacokinetics [6]: good pharmacokinetics

O=c1[nH]c(=S)[nH]c(N=Cc2ccccc2)c1N=Cc1ccccc1 [Scr7]
MRE11 recruitment at the target site (ChIP-qPCR) [1]: suppressed MRE11 recruitment

O=c1cc(N2CCOCC2)oc2c1ccc1ccccc12 [Nu7026, 2-(morpholin-4-yl)benzo (h) chromen-4-one]
MRE11 recruitment at the target site (ChIP-qPCR) [1]: significantly increased MRE11 recruitment

O=c1cc(-c2cccc3c2Sc2ccccc2S3)oc(N2CCOCC2)c1 [Ku-55933]
MRE11 recruitment at the target site (ChIP-qPCR) [1]: did not exhibit a clear effect
